Laboratory results reported in ChEMBL document CHEMBL3885881, “DrugMatrix”.

Organism: Rattus norvegicus
Experiment: DrugMatrix - Regimen: Daily Repeat
Format: toxicity, organism-based, Sprague-Dawley
Design: regimen Daily Repeat, gender Male, age 6-8 weeks
Details: in vivo, po, route oral GAVAGE, vehicle .5 % CMC; for ABSOLUTE BASOPHIL / ABSOLUTE EOSINOPHIL / ABSOLUTE LYMPHOCYTE / ABSOLUTE MONOCYTE / ABSOLUTE SEGMENTED NEUTROPHIL / BASOPHIL / EOSINOPHIL / ERYTHROCYTE COUNT / HEMATOCRIT / HEMOGLOBIN / LEUKOCYTE COUNT / LYMPHOCYTE / MEAN CORPUSCULAR HEMOGLOBIN / MEAN CORPUSCULAR HEMOGLOBIN CONCENTRATION / MEAN CORPUSCULAR VOLUME / MONOCYTE / NEUTROPHIL / NUCLEATED RED BLOOD CELLS / PLATELET COUNT: tissue Blood; for ALANINE AMINOTRANSFERASE / ALBUMIN / ALKALINE PHOSPHATASE / ASPARTATE AMINOTRANSFERASE / BLOOD UREA NITROGEN / CARBON DIOXIDE / CHLORIDE / CHOLESTEROL / CREATINE PHOSPHOKINASE / CREATININE / GLUCOSE / LACTATE DEHYDROGENASE / LIPASE / PHOSPHORUS / POTASSIUM / SODIUM / TOTAL BILIRUBIN / TOTAL PROTEIN / URIC ACID: tissue Plasma
[1] = 31 mg/kg, 72 h, dose level Low, time 3 day
[2] = 31 mg/kg, 120 h, dose level Low, time 5 day
[3] = 76 mg/kg, 72 h, dose level High, time 3 day
[4] = 76 mg/kg, 120 h, dose level High, time 5 day

With O=C1CN(/N=C/c2ccc([N+](=O)[O-])o2)C(=O)N1 [NITROFURANTOIN] the “ABSOLUTE BASOPHIL” value [1] was 0 CELLS/uL, the “ABSOLUTE EOSINOPHIL” value [1] was 106.67 CELLS/uL and the “ABSOLUTE LYMPHOCYTE” value [1] was 13250.33 CELLS/uL. The “ABSOLUTE MONOCYTE” value [1] was 160 CELLS/uL, the “ABSOLUTE SEGMENTED NEUTROPHIL” value [1] was 1583 CELLS/uL and the BASOPHIL [1] was 0%. The EOSINOPHIL [1] was 0.67%, the “ERYTHROCYTE COUNT” value [1] was 5.65 x10E6/uL and the HEMATOCRIT [1] was 35.43%. The HEMOGLOBIN [1] was 13.47 G/DL, the “LEUKOCYTE COUNT” value [1] was 15.1 x10E3/uL and the LYMPHOCYTE [1] was 88%. The “MEAN CORPUSCULAR HEMOGLOBIN” value [1] was 23.9 pg, the “MEAN CORPUSCULAR HEMOGLOBIN CONCENTRATION” value [1] was 38.03 G/DL and the “MEAN CORPUSCULAR VOLUME” value [1] was 62.77 fL. The MONOCYTE [1] was 1%, the NEUTROPHIL [1] was 10.33% and the “NUCLEATED RED BLOOD CELLS” value [1] was 0.33 /100WBC. The “PLATELET COUNT” value [1] was 1275.33 x10E3/uL, the “ALANINE AMINOTRANSFERASE” value [1] was 49.33 u/L and the ALBUMIN [1] was 4.4 G/DL. For the same molecule, the “ALKALINE PHOSPHATASE” value [1] was 440.67 u/L, the “ASPARTATE AMINOTRANSFERASE” value [1] was 85 u/L and the “BLOOD UREA NITROGEN” value [1] was 15.33 mg/dL. The “CARBON DIOXIDE” value [1] was 22.67 mmol/L, the CHLORIDE [1] was 105.67 MEQ/L and the CHOLESTEROL [1] was 74.67 mg/dL. For the same molecule, the “CREATINE PHOSPHOKINASE” value [1] was 232.33 u/L, the CREATININE [1] was 0.25 mg/dL and the GLUCOSE [1] was 142.33 mg/dL. The “LACTATE DEHYDROGENASE” value [1] was 280 u/L, the LIPASE [1] was 9.67 u/L and the PHOSPHORUS [1] was 13.57 mg/dL. For the same molecule, the POTASSIUM [1] was 6.78 MEQ/L, the SODIUM [1] was 147.27 MEQ/L and the “TOTAL BILIRUBIN” value [1] was 0.27 mg/dL. The “TOTAL PROTEIN” value [1] was 6.1 G/DL, the “URIC ACID” value [1] was 2.1 mg/dL and the “ABSOLUTE BASOPHIL” value [2] was 0 CELLS/uL. For the same molecule, the “ABSOLUTE EOSINOPHIL” value [2] was 48 CELLS/uL, the “ABSOLUTE LYMPHOCYTE” value [2] was 14184 CELLS/uL and the “ABSOLUTE MONOCYTE” value [2] was 368 CELLS/uL. For the same molecule, the “ABSOLUTE SEGMENTED NEUTROPHIL” value [2] was 1000 CELLS/uL, the BASOPHIL [2] was 0% and the EOSINOPHIL [2] was 0.33%. The “ERYTHROCYTE COUNT” value [2] was 5.46 x10E6/uL, the HEMATOCRIT [2] was 34.3% and the HEMOGLOBIN [2] was 13.23 G/DL. For the same molecule, the “LEUKOCYTE COUNT” value [2] was 15.6 x10E3/uL, the LYMPHOCYTE [2] was 90.67% and the “MEAN CORPUSCULAR HEMOGLOBIN” value [2] was 24.3 pg. For the same molecule, the “MEAN CORPUSCULAR HEMOGLOBIN CONCENTRATION” value [2] was 38.57 G/DL, the “MEAN CORPUSCULAR VOLUME” value [2] was 62.93 fL and the MONOCYTE [2] was 2.33%. The NEUTROPHIL [2] was 6.67%, the “NUCLEATED RED BLOOD CELLS” value [2] was 0.33 /100WBC and the “PLATELET COUNT” value [2] was 1440 x10E3/uL. The “ALANINE AMINOTRANSFERASE” value [2] was 44.67 u/L, the ALBUMIN [2] was 4.27 G/DL and the “ALKALINE PHOSPHATASE” value [2] was 262 u/L. For the same molecule, the “ASPARTATE AMINOTRANSFERASE” value [2] was 72.33 u/L, the “BLOOD UREA NITROGEN” value [2] was 13.67 mg/dL and the “CARBON DIOXIDE” value [2] was 25.67 mmol/L. For the same molecule, the CHLORIDE [2] was 106.33 MEQ/L, the CHOLESTEROL [2] was 58.33 mg/dL and the “CREATINE PHOSPHOKINASE” value [2] was 186 u/L. The CREATININE [2] was 0.19 mg/dL, the GLUCOSE [2] was 159 mg/dL and the “LACTATE DEHYDROGENASE” value [2] was 76.67 u/L. It also gave an LIPASE [2] of 11.67 u/L, a PHOSPHORUS [2] of 12.87 mg/dL and a POTASSIUM [2] of 6.41 MEQ/L. For the same molecule, the SODIUM [2] was 147.13 MEQ/L, the “TOTAL BILIRUBIN” value [2] was 0.17 mg/dL and the “TOTAL PROTEIN” value [2] was 5.97 G/DL. The “URIC ACID” value [2] was 2.1 mg/dL, the “ABSOLUTE BASOPHIL” value [3] was 0 CELLS/uL and the “ABSOLUTE EOSINOPHIL” value [3] was 0 CELLS/uL. The “ABSOLUTE LYMPHOCYTE” value [3] was 13972.67 CELLS/uL, the “ABSOLUTE MONOCYTE” value [3] was 336.33 CELLS/uL and the “ABSOLUTE SEGMENTED NEUTROPHIL” value [3] was 1224.33 CELLS/uL. For the same molecule, the BASOPHIL [3] was 0%, the EOSINOPHIL [3] was 0% and the “ERYTHROCYTE COUNT” value [3] was 5.83 x10E6/uL. For the same molecule, the HEMATOCRIT [3] was 38.1%, the HEMOGLOBIN [3] was 13.73 G/DL and the “LEUKOCYTE COUNT” value [3] was 15.53 x10E3/uL. The LYMPHOCYTE [3] was 89.33%, the “MEAN CORPUSCULAR HEMOGLOBIN” value [3] was 23.53 pg and the “MEAN CORPUSCULAR HEMOGLOBIN CONCENTRATION” value [3] was 36 G/DL. For the same molecule, the “MEAN CORPUSCULAR VOLUME” value [3] was 65.37 fL, the MONOCYTE [3] was 2.33% and the NEUTROPHIL [3] was 8.33%. For the same molecule, the “NUCLEATED RED BLOOD CELLS” value [3] was 0 /100WBC, the “PLATELET COUNT” value [3] was 1452.67 x10E3/uL and the “ALANINE AMINOTRANSFERASE” value [3] was 48.67 u/L. For the same molecule, the ALBUMIN [3] was 4.37 G/DL, the “ALKALINE PHOSPHATASE” value [3] was 355.67 u/L and the “ASPARTATE AMINOTRANSFERASE” value [3] was 77 u/L. For the same molecule, the “BLOOD UREA NITROGEN” value [3] was 14.33 mg/dL, the “CARBON DIOXIDE” value [3] was 25 mmol/L and the CHLORIDE [3] was 103.67 MEQ/L. For the same molecule, the CHOLESTEROL [3] was 77 mg/dL, the “CREATINE PHOSPHOKINASE” value [3] was 150 u/L and the CREATININE [3] was 0.21 mg/dL. The GLUCOSE [3] was 208.33 mg/dL, the “LACTATE DEHYDROGENASE” value [3] was 99 u/L and the LIPASE [3] was 9.67 u/L. It also gave a PHOSPHORUS [3] of 13.23 mg/dL, a POTASSIUM [3] of 6.13 MEQ/L and an SODIUM [3] of 146.97 MEQ/L. The “TOTAL BILIRUBIN” value [3] was 0.23 mg/dL, the “TOTAL PROTEIN” value [3] was 6.1 G/DL and the “URIC ACID” value [3] was 2.37 mg/dL. The “ABSOLUTE BASOPHIL” value [4] was 0 CELLS/uL, the “ABSOLUTE EOSINOPHIL” value [4] was 34.67 CELLS/uL and the “ABSOLUTE LYMPHOCYTE” value [4] was 10550 CELLS/uL. The “ABSOLUTE MONOCYTE” value [4] was 260.33 CELLS/uL, the “ABSOLUTE SEGMENTED NEUTROPHIL” value [4] was 1188.33 CELLS/uL and the BASOPHIL [4] was 0%. For the same molecule, the EOSINOPHIL [4] was 0.33%, the “ERYTHROCYTE COUNT” value [4] was 5.54 x10E6/uL and the HEMATOCRIT [4] was 34.03%. For the same molecule, the HEMOGLOBIN [4] was 12.9 G/DL, the “LEUKOCYTE COUNT” value [4] was 12.03 x10E3/uL and the LYMPHOCYTE [4] was 88%. The “MEAN CORPUSCULAR HEMOGLOBIN” value [4] was 23.27 pg, the “MEAN CORPUSCULAR HEMOGLOBIN CONCENTRATION” value [4] was 37.9 G/DL and the “MEAN CORPUSCULAR VOLUME” value [4] was 61.4 fL. The MONOCYTE [4] was 2%, the NEUTROPHIL [4] was 9.67% and the “NUCLEATED RED BLOOD CELLS” value [4] was 0 /100WBC. The “PLATELET COUNT” value [4] was 1320 x10E3/uL, the “ALANINE AMINOTRANSFERASE” value [4] was 44.67 u/L and the ALBUMIN [4] was 4.2 G/DL. For the same molecule, the “ALKALINE PHOSPHATASE” value [4] was 279.67 u/L, the “ASPARTATE AMINOTRANSFERASE” value [4] was 85.67 u/L and the “BLOOD UREA NITROGEN” value [4] was 17 mg/dL. The “CARBON DIOXIDE” value [4] was 25.67 mmol/L, the CHLORIDE [4] was 105 MEQ/L and the CHOLESTEROL [4] was 70 mg/dL. The “CREATINE PHOSPHOKINASE” value [4] was 220 u/L, the CREATININE [4] was 0.18 mg/dL and the GLUCOSE [4] was 163.33 mg/dL. The “LACTATE DEHYDROGENASE” value [4] was 160.67 u/L, the LIPASE [4] was 9.33 u/L and the PHOSPHORUS [4] was 12.57 mg/dL. For the same molecule, the POTASSIUM [4] was 6.4 MEQ/L, the SODIUM [4] was 146.63 MEQ/L and the “TOTAL BILIRUBIN” value [4] was 0.2 mg/dL. The “TOTAL PROTEIN” value [4] was 5.87 G/DL and the “URIC ACID” value [4] was 2.37 mg/dL.
